Patent US20070060533A1, “Novel inhibitor of the formation of advanced glycation end product and aldose reductase inhibitor” (Meiji Seika Kaisha Ltd., priority 2003, published 2007)

Key:
AGE formation = AGE formation suppression test (glucose + bovine serum albumin, fluorescence); format: biochemical; conditions: 67 mmol/L phosphate buffer pH 7.2, 60° C., 48 hours
Procedure: The test was conducted by a partially modified version of the method of Morimitu et al (Morimitu. Y. et. al., Biosci. Biotech. Biochem., 59, 2018-2021 (1995)). Specifically, glucose, each test substance dissolved in DMSO, and bovine serum albumin were incubated in a 67 mmol/L phosphate buffer (pH 7.2) at 60° C. for 48 hours. AGE was thus sufficiently formed by incubation. The amount of formed AGE was discovered by dilution of the reaction solution followed by measurement using a fluorospectrophotometer. The 50% inhibition concentration (IC50) was calculated using the thus obtained value. The lower the IC50, the higher the AGE-inhibiting activity. This indicates the usefulness of a substance as an inhibitor.
(§1) The test substances used herein were the anthocyanin-containing composition prepared in Example 1 and 4 types of crystalline anthocyanin prepared in Example 2.

aldose reductase = target: T1, aldose reductase (Rattus norvegicus, UniProt P07943); assay: Aldose-reductase-inhibiting activity test (rat lens crude enzyme); format: biochemical, Wistar male rats; conditions: DL glycerylaldehyde substrate, pH 7.0, 30° C.
T1 construct: the supernatant was used as a crude enzyme solution; from tissue; host or cells: lenses of Wistar male rats
Procedure: The test was conducted by a partially modified version of the method of Dufrane et al (Dufrane S. P. et al., Biochem. Med., 32, 99-105 (1984)). Specifically, the lenses of Wistar male rats were homogenized with 10 mmol/L 2-mercapto ethanol. The resultant was centrifuged, and then the supernatant was used as a crude enzyme solution. Each test substance was dissolved in DMSO and then added to a 180 mmol/L phosphate buffer (pH 7.0). 100 mmol/L lithium sulfate and 0.03 mmol/L NADPH were further added to the solution to initiate a reaction at 30° C. using 1 mmol/L DL glycerylaldehyde as a substrate. 0.5 mol/L HCl was added to stop the reaction. 6 mol/L sodium hydroxide containing 10 mmol/L imidazole was added to the solution. The solution was heated for 20 minutes at 60° C. to convert NADP to a fluorescent substance. The thus generated fluorescent substance was subjected to measurement using a fluorospectrophotometer. 50% inhibition concentration (IC50) was calculated using the thus obtained value.
as §1

SMILES	IC50 (AGE formation) [µM]	IC50 (aldose reductase) [µM]
N=C(N)NN [Aminoguanidine, aminoguanidine, reference compound]	1200	–
OCC1OC(Oc2cc3c(O)cc(O)cc3[o+]c2-c2ccc(O)c(O)c2)C(O)C(O)C1O (stereo not shown) [Example 2 (C3G), cyanidin-3-O-glucoside]	132	4.7
OCC1OC(Oc2cc3c(O)cc(O)cc3[o+]c2-c2cc(O)c(O)c(O)c2)C(O)C(O)C1O (stereo not shown) [Example 2 (D3G), delphinidin-3-O-glucoside]	99	12.5
C[C@@H]1O[C@@H](OC[C@H]2O[C@@H](Oc3c(-c4ccc(O)c(O)c4)oc4cc(O)cc(O)c4c3=O)[C@H](O)[C@@H](O)[C@@H]2O)[C@H](O)[C@H](O)[C@H]1O [Rutin, rutin, reference compound]	–	9

Further lines, results first:

IC50 (AGE formation) [µM]	IC50 (aldose reductase) [µM]	SMILES
154	2.5	CC1OC(OCC2OC(Oc3cc4c(O)cc(O)cc4[o+]c3-c3ccc(O)c(O)c3)C(O)C(O)C2O)C(O)C(O)C1O (stereo not shown) [Example 2 (C3R), cyanidin-3-O-rutinoside]
163	15.2	CC1OC(OCC2OC(Oc3cc4c(O)cc(O)cc4[o+]c3-c3cc(O)c(O)c(O)c3)C(O)C(O)C2O)C(O)C(O)C1O (stereo not shown) [Example 2 (D3R), delphinidin-3-O-rutinoside]
